Laboratory results taken from the NIST ThermoML archive (doi:10.1021/acs.jced.6b00688).

Experiment: xn = mol fraction of the nth substance listed
Conditions: 100 kPa, Liquid; for viscosity: Falling or rolling sphere viscometry; for mass density: Vibrating tube method

CCCCCCCO [heptan-1-ol] + CC1CCCCC1
Conditions | mass density [kg/m3] | viscosity [mPa·s]
293.15 K, x2 = 0.1004 | 817.38 | 5.541
293.15 K, x2 = 0.1991 | 812.34 | 4.404
293.15 K, x2 = 0.3134 | 806.43 | 3.336
293.15 K, x2 = 0.399 | 801.91 | 2.649
293.15 K, x2 = 0.4994 | 796.51 | 2.055
293.15 K, x2 = 0.5997 | 790.98 | 1.603
293.15 K, x2 = 0.6987 | 785.57 | 1.275
293.15 K, x2 = 0.7995 | 779.94 | 1.03
293.15 K, x2 = 0.8995 | 774.56 | 0.845
298.15 K, x2 = 0.1004 | 813.81 | 4.649
298.15 K, x2 = 0.1991 | 808.71 | 3.773
298.15 K, x2 = 0.3134 | 802.7 | 2.924
298.15 K, x2 = 0.399 | 798.1 | 2.325
298.15 K, x2 = 0.4994 | 792.62 | 1.83
298.15 K, x2 = 0.5997 | 787 | 1.448
298.15 K, x2 = 0.6987 | 781.49 | 1.165
298.15 K, x2 = 0.7995 | 775.77 | 0.951
298.15 K, x2 = 0.8995 | 770.3 | 0.79
303.15 K, x2 = 0.1004 | 810.21 | 4.037
303.15 K, x2 = 0.1991 | 805.04 | 3.261
303.15 K, x2 = 0.3134 | 798.92 | 2.548
303.15 K, x2 = 0.399 | 794.25 | 2.055
303.15 K, x2 = 0.4994 | 788.68 | 1.64
303.15 K, x2 = 0.5997 | 782.98 | 1.314
303.15 K, x2 = 0.6987 | 777.38 | 1.068
303.15 K, x2 = 0.7995 | 771.56 | 0.879
303.15 K, x2 = 0.8995 | 766 | 0.736
308.15 K, x2 = 0.1004 | 806.59 | 3.484
308.15 K, x2 = 0.1991 | 801.33 | 2.838
308.15 K, x2 = 0.3134 | 795.12 | 2.235
308.15 K, x2 = 0.399 | 790.37 | 1.827
308.15 K, x2 = 0.4994 | 784.72 | 1.476
308.15 K, x2 = 0.5997 | 778.93 | 1.197
308.15 K, x2 = 0.6987 | 773.24 | 0.983
308.15 K, x2 = 0.7995 | 767.32 | 0.816
308.15 K, x2 = 0.8995 | 761.67 | 0.702
313.15 K, x2 = 0.1004 | 802.94 | 3.027
313.15 K, x2 = 0.1991 | 797.6 | 2.485
313.15 K, x2 = 0.3134 | 791.3 | 1.932
313.15 K, x2 = 0.399 | 786.47 | 1.633
313.15 K, x2 = 0.4994 | 780.73 | 1.335
313.15 K, x2 = 0.5997 | 774.85 | 1.094
313.15 K, x2 = 0.6987 | 769.07 | 0.907
313.15 K, x2 = 0.7995 | 763.06 | 0.759
313.15 K, x2 = 0.8995 | 757.31 | 0.645
318.15 K, x2 = 0.1004 | 799.26 | 2.643
318.15 K, x2 = 0.1991 | 793.83 | 2.188
318.15 K, x2 = 0.3134 | 787.42 | 1.749
318.15 K, x2 = 0.399 | 782.53 | 1.468
318.15 K, x2 = 0.4994 | 776.7 | 1.213
318.15 K, x2 = 0.5997 | 770.74 | 1.004
318.15 K, x2 = 0.6987 | 764.87 | 0.84
318.15 K, x2 = 0.7995 | 758.76 | 0.708
318.15 K, x2 = 0.8995 | 752.93 | 0.607
323.15 K, x2 = 0.1004 | 795.54 | 2.322
323.15 K, x2 = 0.1991 | 790.03 | 1.937
323.15 K, x2 = 0.3134 | 783.52 | 1.559
323.15 K, x2 = 0.399 | 778.55 | 1.324
323.15 K, x2 = 0.4994 | 772.64 | 1.106
323.15 K, x2 = 0.5997 | 766.59 | 0.924
323.15 K, x2 = 0.6987 | 760.64 | 0.779
323.15 K, x2 = 0.7995 | 754.43 | 0.662
323.15 K, x2 = 0.8995 | 748.52 | 0.572
328.15 K, x2 = 0.1004 | 791.78 | 2.05
328.15 K, x2 = 0.1991 | 786.18 | 1.723
328.15 K, x2 = 0.3134 | 779.58 | 1.396
328.15 K, x2 = 0.399 | 774.54 | 1.2
328.15 K, x2 = 0.4994 | 768.55 | 1.011
328.15 K, x2 = 0.5997 | 762.41 | 0.853
328.15 K, x2 = 0.6987 | 756.36 | 0.725
328.15 K, x2 = 0.7995 | 750.06 | 0.621
328.15 K, x2 = 0.8995 | 744.07 | 0.54
333.15 K, x2 = 0.1004 | 787.98 | 1.82
333.15 K, x2 = 0.1991 | 782.3 | 1.541
333.15 K, x2 = 0.3134 | 775.6 | 1.254
333.15 K, x2 = 0.399 | 770.5 | 1.092
333.15 K, x2 = 0.4994 | 764.42 | 0.928
333.15 K, x2 = 0.5997 | 758.17 | 0.789
333.15 K, x2 = 0.6987 | 752.05 | 0.676
333.15 K, x2 = 0.7995 | 745.66 | 0.584
333.15 K, x2 = 0.8995 | 739.59 | 0.512
